Like-named read-outs stand apart in the source and are kept apart here.
What was measured:
[1] = tested on: HepG2 cells; assay: HepG2 cell growth inhibition; format: cell-based; details: Homo sapiens, FIG. 25A
[2] = tested on: HepG2 cells; assay: MTT assay, HepG2 survival; format: cell-based, human; details: FIG. 7
[3] = molecular target: TEAD2-YBD (Homo sapiens, UniProt Q15562); assay: Intact protein mass spectrometry, covalent modification of TEAD2-YBD; format: binding
From the text: To substantiate the covalent interaction between Compound 22 and TEAD2-YBD, intact mass spectrometry was employed to monitor the protein's mass change upon binding with the compound.
Human TEAD2-YBD (217-447) (TEAD2_HUMAN, UniProtKB Q15562) was expressed and purified as previously described.^79 To eliminate endogenous palmitoylation, Cys380Ser mutant (TEAD2-C380S) was generated and purified using the same protocol. [00392]hTEAD2 was expressed, purified, and deacylated as reported.^52 Briefly, the yap-binding domain (YBD) of […] was cloned in pET28a vector with the N terminal 6x His tag. The recombinant protein was induced at 16 ° C using 0.2 mM isopropyl bD-1-thiogalactopyranoside (IPTG) for 10 h for overexpression in Escherichia coli strain BL2 (DE3) CodonPlus competent cells (Invitrogen). Then cells were harvested, followed by lysis and the supernatant was loaded onto the HisTrap FF column (GE Healthcare). The hTEAD4-YBD was eluted with elution buffer (50 mM Hepes 8.0, 300 mM NaCl, 10% Glycerol, 1 mM TCEP, 125 mM imidazole). To eliminate the endogenous fatty acid, the protein was incubated with 0.2 mM hydroxylamine for 2 h and further purified through gel filtration chromatography in the final buffer (25 mM Hepes pH 8.0, 100 mM NaCl, 1 mM TCEP, and 5% glycerol). Collected fractions were concentrated to 5 mg/mL and flash frozen for further use. […]

[4] = tested on: Huh7 cells; assay: Huh7 cell proliferation assay (CCK8); format: cell-based, human; details: for IC50: Homo sapiens
Protocol: CCK8 assay kit was used to determine antiproliferative activity of synthesized compounds against Huh7 cell line. First, Huh7 cells were seeded into 96-well plates at a density of 3000 cells/well and incubated overnight. Cells were then co-incubated with compounds at 8 concentrations for 72 h. Then, the cell proliferation was determined by the CCK8 kit according to the standard protocol. Experiments were performed in triplicate.

[5] = tested on: TAZ-TEAD; assay: Co-immunoprecipitation of endogenous TAZ and TEAD in NCI-H226 cells; format: cell-based; details: 1 μM, 24 hours
Protocol: To assess if compound 22 inhibits the interaction between YAP/TAZ and TEAD proteins within the cell, compound 22 was administered to NF2-deficient NCI-H226 cells for 24 hours. Subsequently, the endogenous TEAD protein was isolated through immunoprecipitation using a pan-TEAD antibody and examined the immunocomplexes for the presence of YAP/TAZ proteins using anti-YAP/TAZ antibodies (as depicted in FIG. 18).
[…] protein lysate extracted using lysis buffer were incubated with 5 μL pan-TEAD antibody (CST #13295, 33 g/ml) at 4 ° C overnight with rotation, and then incubated with 15 μL Protein G magnetic beads (Fisher #88847) at R.T. for 1 hour with rotation. After binding, beads were washed three times with lysis buffer and one time with ddH2O. IP samples were eluted using 1× gel loading buffer supplied with 20 mM DTT and boiled at 96 ° C for 10 min. […] protein lysate were used for input, and 3% IP flow-thru were used for binding efficiency control. *0 indicated DMSO control. For the detection process, primary antibodies used were: YAP/TAZ rabbit monoclonal antibody (mAb) at a dilution of 1:2000, CST #8418S; Pan-TEAD rabbit mAb at 1:2000, CST #13295S; and 3-actin mouse mAb at 1:8000, Sigma #A5316. Secondary antibodies applied in 1× TBST were: Rabbit IgG-HRP at 1:10000 and Mouse IgG-HRP also at 1:10000.

TEAD2-YBD, sequence (Q15562 217-447): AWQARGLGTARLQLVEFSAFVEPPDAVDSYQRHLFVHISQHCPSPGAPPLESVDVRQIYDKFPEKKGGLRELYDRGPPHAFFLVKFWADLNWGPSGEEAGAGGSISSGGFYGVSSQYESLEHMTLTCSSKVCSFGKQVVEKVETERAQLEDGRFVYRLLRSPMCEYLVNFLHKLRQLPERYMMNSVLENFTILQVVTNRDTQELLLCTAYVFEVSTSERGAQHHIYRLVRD

O=C(CCl)c1c[nH]c2cc(Cl)c(OCc3cccc(C(F)(F)F)c3)cc12 [Compound 22, 2-chloro-1-(6-chloro-5-((3-(trifluoromethyl)benzyl)oxy)-1H-indol-3-yl)ethan-1-one]
IC50 [1]: 2400 nM | HepG2 survival, MTT assay [2]: inhibits | Labeling of TEAD2-YBD ([3]; 15 hours at room temperature): completely labeled with a single molecule | Intact mass shift of TEAD2-YBD ([3]; excess compound, covalent complex, room temperature): 365.5581 Da | IC50 ([4]; Huh-7, 72 h, 3 days, CCK8, mean ± SD of three independent experiments, read-out: Cell proliferation assay IC50, Huh7): 0.9 ± 0.3 µM | IC50 ([4]; Huh-7, Table 3 column is in μM, read-out: Huh7 cell growth inhibition / proliferation IC50): 0.9 µM | Activity ratio, 3-CF3 derivative compound 22 vs para-analogue compound 23 ([4]; more active than compound 23, Huh7): 16 fold | Co-IP of TAZ with pan-TEAD antibody [5]: not affecting TAZ

Source: patent US20260337177A1, “TEAD CORE INHIBITORS FOR CANCER THERAPEUTICS” (University of Florida Research Foundation, Incorporated, priority 2023, published 2026)
